Laboratory results reported in patent US20230065562A1, “DUAL CONTROLS FOR THERAPEUTIC CELL ACTIVATION OR ELIMINATION” (Bellicum Pharmaceuticals, Inc., priority 2015, published 2023).

Tests used:
[1] = tested on: iCasp9-transduced, CD19-selected allodepleted T cells; assay: Induction of apoptosis with AP20187 in gene-modified allodepleted T cells (annexin V/7-AAD); assay type: cell-based, human
Procedure: Suicide gene functionality was assessed by adding a small molecule synthetic homodimerizer, AP20187 (Ariad Pharmaceuticals; Cambridge, Mass.), at 10 nM final concentration the day following CD19 immunomagnetic selection. Cells were stained with annexin V and 7-amino-actinomycin (7-AAD)(BD Pharmingen) at 24 hours and analyzed by flow cytometry. Cells negative for both annexin V and 7-AAD were considered viable, cells that were annexin V positive were apoptotic, and cells that were both annexin V and 7-AAD positive were necrotic. The percentage killing induced by dimerization was corrected for baseline viability as follows: Percentage killing=100%−(% Viability in AP20187-treated cells÷% Viability in nontreated cells).
Cells were maintained in T cell medium containing 50 U/ml IL-2 until 22 days after transduction. A portion of cells was reactivated on 24-well plates coated with […] OKT3 and 1 µg/ml anti-CD28 (Clone CD28.2, BD Pharmingen, San Jose, Calif.) for 48 to 72 hours. CD19 expression and suicide gene function in both reactivated and non-reactivated cells were measured on day 24 or 25 post transduction.
The day following immunomagnetic selection, 10 nM of the chemical inducer of dimerization, AP20187, was added to induce apoptosis, which appeared within 24 hours. […] Killing efficiency after correction for baseline viability was about 92.9%±3.8%. Large-scale CD19 selection produced cells that were killed with similar efficiency as small-scale selection: mean viability with and without AP20187, and percentage killing, in large and small scale were about 3.9%, about 84.0%, about 95.4% (n=3) and about 6.6%, about 79.3%, about 91.4% (n=5) respectively. AP20187 was non-toxic to non-transduced cells: viability with and without AP20187 was about 86%±9% and 87%±8% respectively (n=6).
To assess the stability of transgene expression and function, cells were maintained in T cell culture medium and low dose IL-2 (50 U/ml) until 24 days after transduction. A portion of cells was then reactivated with OKT3/anti-CD28. CD19 expression was analyzed by flow cytometry 48 to 72 hours later, and suicide gene function was assessed by treatment with 10 nM AP20187. The obtained are for cells from day 5 post transduction (ie, 1 day after CD 19 selection) and day 24 post transduction, with or without 48-72 hours of reactivation (5 experiments). In 2 experiments, CD25 selection was performed after OKT3/αCD28 activation to further enrich activated cells. Error bars represent standard deviation. * indicates p<0.05 when compared to cells from day 5 post transduction. By day 24, surface CD19 expression fell from about 98%±1% to about 88%±4% (p<0.05) with a parallel decrease in mean fluorescence intensity (MFI) from 793±128 to 478±107 (p<0.05) (see FIG. 13B). Similarly, there was a significant reduction in suicide gene function: residual viability was 19.6±5.6% following treatment with AP20187; after correction for baseline viability of 54.8±20.9%, this equated to killing efficiency of only 63.1±6.2%.

[2] = tested on: iRmC9 T cells (pBP1327, GFP-Fluc); assay: Drug titration of rimiducid and rapamycin in mice bearing iRmC9 T cells; assay type: in vivo, mouse; details: NSG mice; rimiducid 0.00005-5 mg/kg or rapamycin 0.0001-10 mg/kg i.p.; FIGS. 110B & C
Procedure: In this experiment, iRmC9 T cells were produced by co-transduction with pBP1327 and GFP-Fluc retroviruses from donor 584. […] Ten million iRmC9 T cells were injected IV per mouse (Table 10) (time=−14 hr). […] Vehicle groups received either PBS, 25% solutol in PBS or 5% DMA in PT. IVIS imaging was performed at −10, 0, 6, and 24 hours. Mice were sacrificed and spleens were collected for FACS analysis with hCD3, hCD19 and mCD45 antibodies. […] This observation is similar to that observed in the previous experiment (FIG. 109B) and could be due to the components of the PT.
FIG. 110. […] PBMCs from donor 584 were activated and co-transduced with retroviruses encoding the pBP1327 vector and the GFP-Fluc plasmid. (FIG. 110A) Ten days post-transduction, the cells were analyzed for CD19 and GFP transduction efficiency prior to injection into mice. (FIGS. 110B & C) NSG mice were injected i.v. with 1×10^7 T cells co-transduced with GFP-Fluc per mouse and suicide drugs were injected i.p. the next day. Bioluminescence of cells was assessed at −10, 0, 6, and 24 hours post drug administration. (FIG. 110D) At 24 h post-drug treatment, mice were euthanized and spleens were collected for flow cytometry analysis with antibodies to hCD3, […], and mCD45.

[3] = tested on: HLA-A2+PRAME+ U2OS osteosarcoma; assay: iMC-PRAME TCR cytotoxicity and IL-2 secretion against U2OS; assay type: cell-based
Excerpt: The Go156 TCR is a negative control TCR.

[4] = 10 nM AP20187, day after CD19 selection
[5] = day 24 post transduction, non-reactivated
[6] = large-scale CD19 selection (n=3)
[7] = small-scale CD19 selection (n=5)

In the case of `CC[C@H](C(=O)N1CCCC[C@H]1C(=O)O[C@H](CCc1ccc(OC)c(OC)c1)c1cccc(OCC(=O)NCC(CNC(=O)COc2cccc([C@@H](CCc3ccc(OC)c(OC)c3)OC(=O)[C@@H]3CCCCN3C(=O)[C@@H](CC)c3cc(OC)c(OC)c(OC)c3)c2)CN(C)C)c1)c1cc(OC)c(OC)c(OC)c1` [AP20187], the “killing efficiency after correction for baseline viability” value [1, 4] is reported as “about 92.9%±3.8”, the “viable cells (annexin V and 7-AAD negative) at 24 hours” value [1, 4] is reported as “about 5.5%±2.5” and the killing ([1]; CD25 negative fraction after reactivation) is reported as 78.6±9.1%. The killing efficiency ([1]; OKT3/αCD28-reactivated cells, day 24 or 25) was ~84.6%±8.0, the killing efficiency ([1]; day 5 post transduction) was 93.1±3.5% and the killing efficiency [1, 5] was 63.1±6.2%. For the same compound, the “residual viability following AP20187” value [1, 5] was 19.6±5.6%, the “apoptosis after treatment with dimerizer” value ([1]; iCasp9-modified donor T cells) was greater than 90% and the “mean viability with AP20187” value [1, 6] was “about 3.9%”. The percentage killing [1, 6] was “about 95.4%”, the “mean viability with AP20187” value [1, 7] was “about 6.6%” and the percentage killing [1, 7] was “about 91.4%”.
For `CC[C@H](C(=O)N1CCCC[C@H]1C(=O)O[C@H](CCc1ccc(OC)c(OC)c1)c1cccc(OCC(=O)NCCNC(=O)COc2cccc([C@@H](CCc3ccc(OC)c(OC)c3)OC(=O)[C@@H]3CCCCN3C(=O)[C@@H](CC)c3cc(OC)c(OC)c(OC)c3)c2)c1)c1cc(OC)c(OC)c(OC)c1` [rimiducid], the “IVIS imaging of iRmC9 T cells in dose titration” value [2] was “dose-dependent removal”, the “iMC-PRAME TCR-mediated cytotoxicity against U2OS” value ([3]; FIG. 119A) was “rimiducid-independent” and the “IL-2 secretion, PRAME TCR with rimiducid-driven iMC costimulation, U2OS” value ([3]; FIG. 119B) was “maximal IL-2 secretion”.
